The results in this text go back to patent US11420973B2, “Amide substituted indole compounds useful as TLR inhibitors” (BRISTOL-MYERS SQUIBB COMPANY, priority 2017, dated 2022).

SMILES strings stand for the structures. Structures can show the parent of a compound that is named as a salt.

One assay addresses human TLR7 (Homo sapiens (Human), UniProt Q9NYK1). The assay can be described thus: TLR7 inhibition reporter assay (HEK-Blue SEAP reporter, gardiquimod stimulation). In kind it is cell-based. To be noted: HEK-Blue cells overexpressing human TLR7, gardiquimod 7.5 μM.
A further assay concerns the target human TLR8 (Homo sapiens (Human), UniProt Q9NR97). As to the kind of experiment: TLR8 inhibition reporter assay (HEK-Blue SEAP reporter, R848 stimulation).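 Note: SEAP driven by IFN-β minimal promoter with NF-κB and AP-1 sites, 22 h incubation, compounds 0.05 nM–50 µM, inhibition scaled between agonist plus DMSO and reference inhibitor wells.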 To be noted: read-out: TLR8 IC50; HEK-Blue cells overexpressing human TLR8, R848 15.9 μM, SEAP reporter.
The next assay concerns the target human TLR9 (Homo sapiens (Human), UniProt Q9NR96). As to the kind of experiment: TLR9 inhibition reporter assay (HEK-Blue SEAP reporter, ODN2006 stimulation).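 Note: SEAP reporter under IFN-β minimal promoter with five NF-κB and AP-1 sites, 22 h incubation, compounds 0.05 nM–50 µM, inhibition relative to agonist plus DMSO versus known inhibitor.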 To be noted: read-out: TLR9 IC50; HEK-Blue cells overexpressing human TLR9, ODN2006 5 nM, SEAP reporter.

Sequence of human TLR8 (Q9NR97 27-1041): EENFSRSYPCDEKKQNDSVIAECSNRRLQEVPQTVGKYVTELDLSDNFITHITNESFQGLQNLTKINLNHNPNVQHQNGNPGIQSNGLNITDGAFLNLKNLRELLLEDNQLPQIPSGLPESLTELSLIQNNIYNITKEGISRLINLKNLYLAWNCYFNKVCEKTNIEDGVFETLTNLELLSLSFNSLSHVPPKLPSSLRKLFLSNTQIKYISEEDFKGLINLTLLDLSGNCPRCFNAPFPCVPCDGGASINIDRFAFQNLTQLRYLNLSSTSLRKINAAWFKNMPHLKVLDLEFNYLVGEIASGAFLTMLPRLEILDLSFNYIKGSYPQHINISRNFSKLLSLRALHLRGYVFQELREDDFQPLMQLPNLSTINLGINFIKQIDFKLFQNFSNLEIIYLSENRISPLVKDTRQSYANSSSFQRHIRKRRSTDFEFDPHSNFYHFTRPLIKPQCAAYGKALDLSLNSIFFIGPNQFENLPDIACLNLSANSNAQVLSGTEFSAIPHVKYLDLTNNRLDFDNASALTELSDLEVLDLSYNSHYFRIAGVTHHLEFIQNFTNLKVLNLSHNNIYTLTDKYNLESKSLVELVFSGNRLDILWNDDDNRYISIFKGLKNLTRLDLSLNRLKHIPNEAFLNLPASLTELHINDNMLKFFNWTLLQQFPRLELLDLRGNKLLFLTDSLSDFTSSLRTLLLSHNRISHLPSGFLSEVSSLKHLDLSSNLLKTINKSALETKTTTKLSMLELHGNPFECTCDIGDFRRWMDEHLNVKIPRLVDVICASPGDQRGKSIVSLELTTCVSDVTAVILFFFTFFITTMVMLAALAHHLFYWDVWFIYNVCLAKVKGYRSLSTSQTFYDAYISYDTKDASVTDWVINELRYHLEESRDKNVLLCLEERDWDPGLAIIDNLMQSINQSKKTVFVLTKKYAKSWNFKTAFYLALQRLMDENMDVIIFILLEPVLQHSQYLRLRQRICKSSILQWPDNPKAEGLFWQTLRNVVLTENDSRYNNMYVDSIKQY
Sequence of human TLR9 (Q9NR96 26-1032): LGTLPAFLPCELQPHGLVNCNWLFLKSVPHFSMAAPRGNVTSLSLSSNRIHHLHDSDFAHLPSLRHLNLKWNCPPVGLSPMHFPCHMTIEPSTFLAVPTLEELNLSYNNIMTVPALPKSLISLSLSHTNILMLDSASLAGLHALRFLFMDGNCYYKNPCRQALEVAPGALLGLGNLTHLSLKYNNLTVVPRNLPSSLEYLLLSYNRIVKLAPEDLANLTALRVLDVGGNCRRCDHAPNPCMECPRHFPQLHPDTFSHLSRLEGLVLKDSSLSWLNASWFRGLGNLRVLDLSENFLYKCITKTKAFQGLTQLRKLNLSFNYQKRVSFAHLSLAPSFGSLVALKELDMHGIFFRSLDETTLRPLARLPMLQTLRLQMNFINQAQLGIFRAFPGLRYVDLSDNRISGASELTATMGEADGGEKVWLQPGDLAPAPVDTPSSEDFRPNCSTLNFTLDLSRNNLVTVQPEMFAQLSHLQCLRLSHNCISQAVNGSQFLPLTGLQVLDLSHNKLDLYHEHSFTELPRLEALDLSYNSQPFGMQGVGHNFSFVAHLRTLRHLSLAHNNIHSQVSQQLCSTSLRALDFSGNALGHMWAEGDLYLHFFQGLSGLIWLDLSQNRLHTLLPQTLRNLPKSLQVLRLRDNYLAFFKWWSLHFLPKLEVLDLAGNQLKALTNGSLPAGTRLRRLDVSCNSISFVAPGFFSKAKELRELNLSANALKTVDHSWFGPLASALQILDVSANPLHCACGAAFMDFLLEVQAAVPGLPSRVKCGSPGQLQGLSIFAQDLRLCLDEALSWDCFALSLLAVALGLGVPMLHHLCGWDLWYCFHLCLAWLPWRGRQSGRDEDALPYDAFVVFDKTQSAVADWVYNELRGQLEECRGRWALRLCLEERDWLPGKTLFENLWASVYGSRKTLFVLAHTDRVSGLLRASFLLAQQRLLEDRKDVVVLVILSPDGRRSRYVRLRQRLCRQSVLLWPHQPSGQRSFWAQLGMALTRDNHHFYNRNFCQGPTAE
Sequence of human TLR7 (Q9NYK1 27-1049): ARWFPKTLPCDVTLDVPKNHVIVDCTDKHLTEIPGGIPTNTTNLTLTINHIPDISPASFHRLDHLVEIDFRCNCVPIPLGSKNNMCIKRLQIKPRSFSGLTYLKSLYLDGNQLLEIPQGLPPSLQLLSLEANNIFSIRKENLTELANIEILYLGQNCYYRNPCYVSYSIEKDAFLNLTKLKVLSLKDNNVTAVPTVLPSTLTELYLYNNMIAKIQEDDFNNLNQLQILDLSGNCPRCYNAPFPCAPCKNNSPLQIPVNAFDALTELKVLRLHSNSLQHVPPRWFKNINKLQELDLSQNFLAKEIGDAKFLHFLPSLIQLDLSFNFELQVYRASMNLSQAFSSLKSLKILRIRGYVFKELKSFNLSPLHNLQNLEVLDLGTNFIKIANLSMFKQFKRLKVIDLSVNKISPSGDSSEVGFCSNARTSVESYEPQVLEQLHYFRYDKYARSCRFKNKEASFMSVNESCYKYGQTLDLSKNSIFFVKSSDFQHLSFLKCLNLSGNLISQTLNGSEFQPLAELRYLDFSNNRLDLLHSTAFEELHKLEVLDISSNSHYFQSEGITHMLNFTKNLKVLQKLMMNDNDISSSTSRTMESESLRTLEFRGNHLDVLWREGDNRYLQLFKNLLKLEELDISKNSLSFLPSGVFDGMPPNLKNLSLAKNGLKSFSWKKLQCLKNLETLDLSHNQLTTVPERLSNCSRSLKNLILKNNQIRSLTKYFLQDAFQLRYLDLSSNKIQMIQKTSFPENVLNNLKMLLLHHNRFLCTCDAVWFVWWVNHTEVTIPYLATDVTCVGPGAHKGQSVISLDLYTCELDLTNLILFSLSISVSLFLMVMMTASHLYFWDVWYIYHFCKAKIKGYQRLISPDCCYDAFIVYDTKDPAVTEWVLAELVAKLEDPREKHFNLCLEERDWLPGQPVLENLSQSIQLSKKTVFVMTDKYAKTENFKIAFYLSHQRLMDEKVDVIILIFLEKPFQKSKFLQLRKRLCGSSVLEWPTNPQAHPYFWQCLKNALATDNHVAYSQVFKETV
Method for human TLR8: HEK-Blue™-cells (Invivogen) overexpressing human TLR7, TLR8 or TLR9 receptors were used for screening inhibitors of these receptors using an inducible SEAP (secreted embryonic alkaline phosphatase) reporter gene under the control of the IFN-β minimal promoter fused to five NF-κB and AP-1-binding sites. Briefly, cells are seeded into Greiner 384 well plates (15000 cells per well for TLR7, 20,000 for TLR8 and 25,000 for TLR9) and then treated with test compounds in DMSO to yield a final dose response concentration range of 0.05 nM-50 μM. After a 30 minute compound pre-treatment at room temperature, the cells are then stimulated with a TLR7 ligand (gardiquimod at a final concentration of 7.5 μM), TLR8 ligand (R848 at a final concentration of 15.9 μM) or TLR9 ligand (ODN2006 at a final concentration of 5 nM) to activate NF-κB and AP-1 which induce the production of SEAP. After a 22 hour incubation at 37° C., 5% CO2, SEAP levels are determined with the addition of HEK-Blue™ Detection reagent (Invivogen), a cell culture medium that allows for detection of SEAP, according to manufacturer's specifications.

As to `Cc1cc(-c2[nH]c3ccc(C(=O)N4CC5CN(C(=O)CN(C)C)CC5C4)cc3c2C(C)C)ccn1` (stereo not drawn) [Example 120, 2-(dimethylamino)-1-(5-(3-isopropyl-2-(2-methylpyridin-4-yl)-1H-indole-5-carbonyl)hexahydropyrrolo[3,4-c]pyrrol-2(1H)-yl)ethan-1-one], the IC50 came out at 870 nM against human TLR7, 47 nM on human TLR8 and 752 nM at human TLR9.
The matching figures for `CC(C)c1c(-c2ccnc3[nH]ncc23)[nH]c2ccc(C(=O)N3CC4CNCC4C3)cc12` (stereo not drawn) [Example 121, (hexahydropyrrolo[3,4-c]pyrrol-2(1H)-yl)(3-isopropyl-2-(1H-pyrazolo[3,4-b]pyridin-4-yl)-1H-indol-5-yl)methanone, HCl]: 1600 nM, 122 nM and 3330 nM.
Take `Cc1cc(-c2[nH]c3ccc(C(=O)N4CC5CNCC5C4)cc3c2CC(F)F)cc(C)n1` (stereo not drawn) [Example 122, (3-(2,2-difluoroethyl)-2-(2,6-dimethylpyridin-4-yl)-1H-indol-5-yl)(hexahydropyrrolo [3,4-c]pyrrol-2(1H)-yl)methanone]: the IC50 at human TLR7 was 2260 nM; on human TLR8, 5650 nM; at human TLR9, 1460 nM.
The matching figures for `Cc1cc(-c2[nH]c3ccc(C(=O)NC4CCN(C(C)C)CC4)cc3c2CC(F)F)cc(C)n1` [Example 123, 3-(2,2-difluoroethyl)-2-(2,6-dimethylpyridin-4-yl)-N-(1-isopropylpiperidin-4-yl)-1H-indole-5-carboxamide]: 83 nM, 75 nM and 231 nM.
Regarding `Cc1cc(-c2[nH]c3ccc(C(=O)N4CCCN(C)CC4)cc3c2CC(F)F)cc(C)n1` [Example 124, (3-(2,2-difluoroethyl)-2-(2,6-dimethylpyridin-4-yl)-1H-indol-5-yl)(4-methyl-1,4-diazepan-1-yl)methanone], the IC50 at human TLR7 was 128 nM; on human TLR8 it was 36 nM; on human TLR9, 1120 nM.
For the compound `CCN(CCN(C)C)C(=O)c1ccc2[nH]c(-c3cc(C)nc(C)c3)c(CC(F)F)c2c1` [Example 125, 3-(2,2-difluoroethyl)-N-(2-(dimethylamino)ethyl)-2-(2,6-dimethylpyridin-4-yl)-N-ethyl-1H-indole-5-carboxamide], the IC50 against human TLR7 came to 19 nM; on human TLR8, 23 nM; on human TLR9, 727 nM.
The matching figures for `COc1cc(-c2[nH]c3ccc(C(=O)N4CC5CNCC5C4)cc3c2C(C)C)cn2ncnc12` (stereo not drawn) [Example 126, (hexahydropyrrolo[3,4-c]pyrrol-2(1H)-yl)(3-isopropyl-2-(8-methoxy-[1,2,4]triazolo[1,5-a]pyridin-6-yl)-1H-indol-5-yl)methanone]: 29 nM, 233 nM and 2410 nM.
The matching figures for `COc1cc(-c2[nH]c3ccc(C(=O)NC4CCN(C(C)C)CC4)cc3c2C(C)C)cn2ncnc12` [Example 127, 3-isopropyl-N-(1-isopropylpiperidin-4-yl)-2-(8-methoxy-[1,2,4]triazolo[1,5-a]pyridin-6-yl)-1H-indole-5-carboxamide]: 2.5 nM, 1.7 nM and 916 nM.
The matching figures for `COc1cc(-c2[nH]c3ccc(C(=O)N4CCCN(C)CC4)cc3c2C(C)C)cn2ncnc12` [Example 128, (3-isopropyl-2-(8-methoxy-[1,2,4]triazolo[1,5-a]pyridin-6-yl)-1H-indol-5-yl)(4-methyl-1,4-diazepan-1-yl)methanone]: 3.8 nM, 2.6 nM and 1400 nM.
As to `COc1cc(-c2[nH]c3ccc(C(=O)N(C)CCN(C)C)cc3c2C(C)C)cn2ncnc12` [Example 129, N-(2-(dimethylamino)ethyl)-3-isopropyl-2-(8-methoxy-[1,2,4]triazolo[1,5-a]pyridin-6-yl)-N-methyl-1H-indole-5-carboxamide], the IC50 against human TLR7 is 1.8 nM; at human TLR8, 2.3 nM; on human TLR9, 3350 nM.
The matching figures for `Cc1cc(-c2[nH]c3ccc(C(C)C(=O)NC[C@@H](F)C(C)(C)O)cc3c2C(C)C)ccn1` (stereo partly drawn) [Example 130, N—((R)-2-fluoro-3-hydroxy-3-methylbutyl)-2-(3-isopropyl-2-(2-methylpyridin-4-yl)-1H-indol-5-yl)propanamide]: 748 nM, 818 nM and greater than 50000 nM.
On to `Cc1cc(-c2[nH]c3ccc(C(C)C(=O)NCC(C)(C)O)cc3c2C(C)C)ccn1` (stereo not drawn) [Example 131, N-(2-hydroxy-2-methylpropyl)-2-(3-isopropyl-2-(2-methylpyridin-4-yl)-1H-indol-5-yl)propanamide], for which the half-inhibitory concentration (IC50) is 657 nM against human TLR7, 979 nM on human TLR8 and greater than 50000 nM on human TLR9.
The matching figures for `Cc1cc(-c2[nH]c3ccc(C(C)(C)C(=O)NC[C@@H](F)C(C)(C)O)cc3c2C(C)C)ccn1` [Example 133, (R)—N-(2-fluoro-3-hydroxy-3-methylbutyl)-2-(3-isopropyl-2-(2-methylpyridin-4-yl)-1H-indol-5-yl)-2-methylpropanamide]: 284 nM, 399 nM and greater than 50000 nM.
The matching figures for `Cc1cc(-c2[nH]c3ccc(C(C)(C)C(=O)NCCN)cc3c2C(C)C)ccn1` [Example 134, N-(2-aminoethyl)-2-(3-isopropyl-2-(2-methylpyridin-4-yl)-1H-indol-5-yl)-2-methylpropanamide]: 63 nM, 110 nM and 1090 nM.
The matching figures for `Cc1cc(-c2[nH]c3ccc(C(C)(C)C(=O)NCCC(C)(C)O)cc3c2C(C)C)ccn1` [Example 135, N-(3-hydroxy-3-methylbutyl)-2-(3-isopropyl-2-(2-methylpyridin-4-yl)-1H-indol-5-yl)-2-methylpropanamide]: 202 nM, 551 nM and greater than 50000 nM.
In the case of `CC(C)c1c(-c2ccnc3[nH]ncc23)[nH]c2ccc(CCC(=O)N3CCOCC3)cc12` [Example 136, 3-(3-isopropyl-2-(1H-pyrazolo[3,4-b]pyridin-4-yl)-1H-indol-5-yl)-1-morpholinopropan-1-one], the figures for the IC50 against human TLR7, on human TLR8 and at human TLR9 were 1760 nM, 411 nM and greater than 50000 nM, respectively.
The matching figures for `COc1ccc(-c2[nH]c3ccc(CCC(=O)N4CC5CNCC5C4)cc3c2C(C)C)cc1OC` (stereo not drawn) [Example 137, 3-(2-(3,4-dimethoxyphenyl)-3-isopropyl-1H-indol-5-yl)-1-(hexahydropyrrolo[3,4-c]pyrrol-2(1H)-yl)propan-1-one]: 109 nM, 32 nM and 840 nM.
The matching figures for `Cc1cc(-c2[nH]c3ccc(C(C)(C)C(=O)N[C@H]4CCNC4)cc3c2C(C)C)ccn1` [Example 138, (S)-2-(3-isopropyl-2-(2-methylpyridin-4-yl)-1H-indol-5-yl)-2-methyl-N-(pyrrolidin-3-yl)propanamide]: 52 nM, 64 nM and 1170 nM.
The matching figures for `Cc1cc(-c2[nH]c3ccc(C(C)(C)C(=O)NC4CCN(C(C)C)CC4)cc3c2C(C)C)ccn1` [Example 139, 2-(3-isopropyl-2-(2-methylpyridin-4-yl)-1H-indol-5-yl)-N-(1-isopropylpiperidin-4-yl)-2-methylpropanamide]: 25 nM, 154 nM and 1140 nM.
